Results taken from patent US20230085307A1, “PYRIDAZINONE COMPOUND AND HERBICIDE” (NISSAN CHEMICAL CORPORATION, priority 2019, published 2023).

Key:
[1] = test system: persian speedwell; test: Test Example 5: herbicidal effect by foliage application, plastic box (Table 20, symbol R); assay type: in vivo, Persian speedwell (Veronica persica); conditions: foliage application, 320 g/ha, three weeks after application
Outline: (§1)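 Foliar spray test: emulsion formulation diluted in water to a set application rate, sprayed onto 14-day-old plants raised in diluvial soil at 25° C to 30° C under glass. Both herbicidal effect and crop effect rated visually three weeks later.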

[2] = test system: southern crabgrass; test: Test Example 5: herbicidal effect by foliage application, plastic box (Table 20, symbol F); assay type: in vivo, southern crabgrass (Digitaria ciliaris); conditions: foliage application, 320 g/ha, three weeks after application
Outline: as §1

[3] = test system: Italian ryegrass; test: Test Example 5: herbicidal effect by foliage application, plastic box (Table 20, symbol K); assay type: in vivo, Italian ryegrass (Lolium multiflorum); conditions: foliage application, 320 g/ha, three weeks after application
Outline: as §1

[4] = test system: redroot pigweed; test: Test Example 4: herbicidal effect by soil treatment (Table 19, symbol N); assay type: in vivo, redroot pigweed (Amaranthus retroflexus); conditions: amount of applied herbicide 320 g/ha
Outline: (§2)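 Herbicidal effect was rated 3 weeks after treatment, using the scoring criteria of an earlier test. The compound, formulated as an emulsion and diluted in water to a set herbicide amount, had been sprayed uniformly on soil over freshly sown seeds. Growth took place in a greenhouse at 25° C. to 30° C.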

[5] = test system: lambsquarters; test: Test Example 4: herbicidal effect by soil treatment (Table 19, symbol O); assay type: in vivo, lambsquarters (Chenopodium album); conditions: amount of applied herbicide 320 g/ha
Outline: as §2

[6] = test system: green foxtail; test: Test Example 4: herbicidal effect by soil treatment (Table 19, symbol G); assay type: in vivo, green foxtail (Setaria viridis); conditions: amount of applied herbicide 320 g/ha
Outline: as §2

[7] = test system: barnyard grass; test: Test Example 5: herbicidal effect by foliage application, plastic box (Table 20, symbol H); assay type: in vivo, barnyard grass (Echinochloa crus-galli); conditions: foliage application, 320 g/ha, three weeks after application
Outline: as §1

[8] = test system: Chinese sprangletop; test: Test Example 3: herbicidal effect by foliage application, Wagner pot (Table 18, symbol D); assay type: in vivo, chinese sprangletop (Leptochloa chinensis); conditions: amount of applied herbicide 320 g/ha
Outline: (§3)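 Plants were sown in alluvial soil held under 0.1–0.5 cm standing water and grown 14 days in a greenhouse at 25–30 °C. An emulsifiable formulation, water-diluted to the set dose, was then sprayed onto the foliage, and effects were scored three weeks later using previously defined criteria.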

[9] = test system: southern crabgrass; test: Test Example 4: herbicidal effect by soil treatment (Table 19, symbol F); assay type: in vivo, southern crabgrass (Digitaria ciliaris); conditions: amount of applied herbicide 320 g/ha
Outline: as §2

[10] = test system: persian speedwell; test: Test Example 4: herbicidal effect by soil treatment (Table 19, symbol R); assay type: in vivo, Persian speedwell (Veronica persica); conditions: amount of applied herbicide 320 g/ha
Outline: as §2

[11] = test system: blackgrass; test: Test Example 5: herbicidal effect by foliage application, plastic box (Table 20, symbol J); assay type: in vivo, blackgrass (Alopecurus myosuroides); conditions: foliage application, 320 g/ha, three weeks after application
Outline: as §1

[12] = test system: wild oat; test: Test Example 5: herbicidal effect by foliage application, plastic box (Table 20, symbol I); assay type: in vivo, wild oat (Avena fatua); conditions: foliage application, 320 g/ha, three weeks after application
Outline: as §1

[13] = test system: chickweed; test: Test Example 4: herbicidal effect by soil treatment (Table 19, symbol P); assay type: in vivo, common chickweed (Stellaria media); conditions: amount of applied herbicide 320 g/ha
Outline: as §2

[14] = test system: green foxtail; test: Test Example 5: herbicidal effect by foliage application, plastic box (Table 20, symbol G); assay type: in vivo, green foxtail (Setaria viridis); conditions: foliage application, 320 g/ha, three weeks after application
Outline: as §1

[15] = test system: blackgrass; test: Test Example 4: herbicidal effect by soil treatment (Table 19, symbol J); assay type: in vivo, blackgrass (Alopecurus myosuroides); conditions: amount of applied herbicide 320 g/ha
Outline: as §2

[16] = test system: lambsquarters; test: Test Example 5: herbicidal effect by foliage application, plastic box (Table 20, symbol O); assay type: in vivo, lambsquarters (Chenopodium album); conditions: foliage application, 320 g/ha, three weeks after application
Outline: as §1

[17] = test system: velvetleaf; test: Test Example 5: herbicidal effect by foliage application, plastic box (Table 20, symbol M); assay type: in vivo, velvetleaf (Abutilon theophrasti); conditions: foliage application, 320 g/ha, three weeks after application
Outline: as §1

[18] = test system: chickweed; test: Test Example 5: herbicidal effect by foliage application, plastic box (Table 20, symbol P); assay type: in vivo, common chickweed (Stellaria media); conditions: foliage application, 320 g/ha, three weeks after application
Outline: as §1

[19] = test system: rice flat sedge; test: Test Example 3: herbicidal effect by foliage application, Wagner pot (Table 18, symbol E); assay type: in vivo, rice flat sedge (Cyperus iria); conditions: amount of applied herbicide 320 g/ha
Outline: as §3

[20] = test system: redroot pigweed; test: Test Example 5: herbicidal effect by foliage application, plastic box (Table 20, symbol N); assay type: in vivo, redroot pigweed (Amaranthus retroflexus); conditions: foliage application, 320 g/ha, three weeks after application
Outline: as §1

[21] = test system: windgrass; test: Test Example 4: herbicidal effect by soil treatment (Table 19, symbol L); assay type: in vivo, windgrass (Apera spica-venti); conditions: amount of applied herbicide 320 g/ha
Outline: as §2

[22] = test system: wild oat; test: Test Example 4: herbicidal effect by soil treatment (Table 19, symbol I); assay type: in vivo, wild oat (Avena fatua); conditions: amount of applied herbicide 320 g/ha
Outline: as §2

[23] = test system: barnyard grass; test: Test Example 3: herbicidal effect by foliage application, Wagner pot (Table 18, symbol H); assay type: in vivo, barnyard grass (Echinochloa crus-galli); conditions: amount of applied herbicide 320 g/ha
Outline: as §3

[24] = test system: barnyard grass; test: Test Example 4: herbicidal effect by soil treatment (Table 19, symbol H); assay type: in vivo, barnyard grass (Echinochloa crus-galli); conditions: amount of applied herbicide 320 g/ha
Outline: as §2

[25] = test system: Italian ryegrass; test: Test Example 4: herbicidal effect by soil treatment (Table 19, symbol K); assay type: in vivo, Italian ryegrass (Lolium multiflorum); conditions: amount of applied herbicide 320 g/ha
Outline: as §2

[26] = test system: windgrass; test: Test Example 5: herbicidal effect by foliage application, plastic box (Table 20, symbol L); assay type: in vivo, windgrass (Apera spica-venti); conditions: foliage application, 320 g/ha, three weeks after application
Outline: as §1

[27] = test system: velvetleaf; test: Test Example 4: herbicidal effect by soil treatment (Table 19, symbol M); assay type: in vivo, velvetleaf (Abutilon theophrasti); conditions: amount of applied herbicide 320 g/ha
Outline: as §2

For `CCc1nn(C)c(=O)c(-c2c(-c3ccc(Cl)cc3)sc3ccc(F)cc23)c1O` [2-408], the “R: persian speedwell, herbicidal effect grade” value [1] was 5 (Herbicidal rate of 90% or more (almost completely withered)), the “F: southern crabgrass, herbicidal effect grade” value [2] was 4 (Herbicidal rate of 70% or more and less than 90%) and the “K: Italian ryegrass, herbicidal effect grade” value [3] was 3 (Herbicidal rate of 40% or more and less than 70%). The “herbicidal effect, N: redroot pigweed” value [4] was 4 (Herbicidal rate of 70% or more and less than 90%), the “herbicidal effect, O: lambsquarters” value [5] was 3 (Herbicidal rate of 40% or more and less than 70%) and the “herbicidal effect, G: green foxtail” value [6] was 0 (Herbicidal rate of 5% or less (almost no effect)). For the same compound, the “H: barnyard grass, herbicidal effect grade” value [7] was 3 (Herbicidal rate of 40% or more and less than 70%), the “herbicidal effect on D: Chinese sprangletop” value [8] was 4 (Herbicidal rate of 70% or more and less than 90%) and the “herbicidal effect, F: southern crabgrass” value [9] was 0 (Herbicidal rate of 5% or less (almost no effect)). For the same compound, the “herbicidal effect, R: persian speedwell” value [10] was 0 (Herbicidal rate of 5% or less (almost no effect)), the “J: blackgrass, herbicidal effect grade” value [11] was 0 (Herbicidal rate of 5% or less (almost no effect)) and the “I: wild oat, herbicidal effect grade” value [12] was 1 (Herbicidal rate of 5% or more and less than 20%). The “herbicidal effect, P: chickweed” value [13] was 0 (Herbicidal rate of 5% or less (almost no effect)), the “G: green foxtail, herbicidal effect grade” value [14] was 5 (Herbicidal rate of 90% or more (almost completely withered)) and the “herbicidal effect, J: blackgrass” value [15] was 0 (Herbicidal rate of 5% or less (almost no effect)). The “O: lambsquarters, herbicidal effect grade” value [16] was 5 (Herbicidal rate of 90% or more (almost completely withered)), the “M: velvetleaf, herbicidal effect grade” value [17] was 4 (Herbicidal rate of 70% or more and less than 90%) and the “P: chickweed, herbicidal effect grade” value [18] was 5 (Herbicidal rate of 90% or more (almost completely withered)). For the same compound, the “herbicidal effect on E: rice flat sedge” value [19] was 5 (Herbicidal rate of 90% or more (almost completely withered)), the “N: redroot pigweed, herbicidal effect grade” value [20] was 5 (Herbicidal rate of 90% or more (almost completely withered)) and the “herbicidal effect, L: windgrass” value [21] was 0 (Herbicidal rate of 5% or less (almost no effect)). The “herbicidal effect, I: wild oat” value [22] was 0 (Herbicidal rate of 5% or less (almost no effect)), the “herbicidal effect on H: barnyard grass” value [23] was 4 (Herbicidal rate of 70% or more and less than 90%) and the “herbicidal effect, H: barnyard grass” value [24] was 0 (Herbicidal rate of 5% or less (almost no effect)). The “herbicidal effect, K: Italian ryegrass” value [25] was 0 (Herbicidal rate of 5% or less (almost no effect)), the “L: windgrass, herbicidal effect grade” value [26] was 0 (Herbicidal rate of 5% or less (almost no effect)) and the “herbicidal effect, M: velvetleaf” value [27] was 1 (Herbicidal rate of 5% or more and less than 20%).
